Laboratory results taken from patent US11820745B2, “PKC-activating compounds for the treatment of neurodegenerative diseases” (Synaptogenix, Inc., priority 2008, dated 2023).

Assays:
[1] = system: Aβ; experiment: Degradation of exogenously applied Aβ in SH-SY5Y neuroblastoma cells; format: cell-based, human; details: 0.01 to 10 μM; 100 nM exogenous monomeric Aβ-42; 24 h; FIG. 8
Protocol: (§1) Cell culture. Rat hippocampal H19-71GF-IR cells (ATCC, Manassas, Va.) were plated onto poly-L-lysine coated plates and grown at 35° C. in DMEM/10% FCS for several days until about 50% coverage was obtained. The cells were then induced to differentiate into a neuronal phenotype by replacing the medium with 5 ml N2 medium containing 10 ng/ml basic fibroblast growth factor at 39° C. and grown in T-75 flasks at 37° C. Human SH-SY5Y neuroblastoma cells (ATCC) were cultured in 45% F12K/45% MEM/10% FCS. Mouse N2A neuroblastoma cells were cultured in DMEM/10% FCS without glutamine. Rat hippocampal neurons from 18-day-old embryonic
(§2) AB Measurement and Cell Viability Assay. Aβ was measured using an Aβ1-42 human fluorimetric ELISA kit (Invitrogen) according to the manufacturer's instructions. Results were measured in a Biotek Synergy HT microplate reader. AlamarBlue and CyQuant NF (Invitrogen) according to the manufacturer's instructions.
To determine whether the reduced levels of AP caused by PKC activators were due to inhibition of Aβ synthesis or activation of Aβ degradation, we applied BR-111 (DHA-CP6) (0.01 to 10 μM) and low concentrations (100 nM) of exogenous monomeric Aβ-42 to cultured SH-SY5Y cells. This concentration of Aβ is too low to produce measurable toxicity or cell death. […]

[2] = system: SH-SY5Y neuroblastoma cells; experiment: Cell survival and proliferation (alamar Blue, CyQuant) in SH-SY5Y neuroblastoma cells; format: cell-based, human; details: for effect on proliferation: CyQuant staining, FIG. 11b; for effect on cell survival: alamar Blue, FIG. 11a
Protocol: as §2

[3] = system: Endothelin-converting enzyme (ECE); experiment: ECE assay in SH-SY5Y neuroblastoma cells; format: cell-based, human; details: bryostatin 0.27 nM, BR-101 1 μM, BR-111 1 μM; FIG. 10
Protocol: ECE assay. SH-S757 neuroblastoma cells were incubated with bryostatin (0.27 nM), BR-101 (PCP-LA) (1 μM), and BR-111 (DHA-CP6) (1 μM). Endothelin-converting enzyme (ECE) was measured fluorimetrically using the method of Johnson and Ahn, Anal. Biochem. 2000; 286: 112-118. A sample of cell homogenate (20 μl) was incubated in 50 mM MES-KOH, pH 6.0, 0.01% C12E10 (polyoxyethylene-10-tauryl ether), and 15 μM McaBK2. (7-Methoxycournarin-4-acetyl [Ala7-(2,4-Dinitrophenyl)Lys9]-bradykinin trifluoroacetate salt) (Sigma-Aldrich). After 60 min at 37° C., the reaction was quenched by adding trifluoroacetic acid to 0.5%. The sample was diluted to 1.4 ml with water and the fluorescence was measured at ex=334 nm, em=398 nm.

[4] = target: T1, PKCα (Homo sapiens, UniProt P17252); experiment: Protein kinase C assay, recombinant PKC alpha; format: biochemical; details: data not shown
T1 construct: purchased Calbiochem
Protocol: Protein kinase C assay. Recombinant PKC (1 ng of alpha or epsilon isofonn) was mixed with the BR-101 (UCP-LA) in the presence of 10 micromoiar histones, 5 mM CaCl2, 1.2 μg/μl phosphatidyl-L-serine, 0.18 μg/μl 1,2-dioctanoyl-sn-glycerol (DAG), […], […] (pH 7.4), 0.8 tnIVI EDTA, 4 mM EGTA, 4% glycerol, 8 μg/ml aprotinin, 8 μ/ml leupeptin, and 2 mM benzamidine. 0.5 micro Ci [^y32P]ATP was added. The incubation mixture was incubated for 15 min at 37 degrees in a total volume of 10 microliters. The reaction was stopped by spotting the reaction mixtures on 1×2 cm strips of cellulose phosphate paper (Whatman P81) and immediately washing twice for 1 hr in 0.5% H3PO4. The cellulose phosphate strips were counted in a scintillation counter. In some experiments, phosphatidylserine, diacylglycerol, and/or calcium were removed.

[5] = target: T2, PKCγ (Homo sapiens, UniProt P05129); experiment: Protein kinase C assay, purified PKC isozymes: PKCγ; format: biochemical; details: higher concentrations, 50-100 μM; data not shown
T2 construct: purchased Calbiochem
Protocol: Protein kinase C assay. Rat hippocampal cells were cultured and scraped in 0.2 ml homogenization buffer (20 triM Tris-HCl, pH 7.4, 50 mM NaF, 1 μg/ml leupeptin, and 0.1 mM PMSF) and homogenized by sonication in a Marsonix micro-probe sonicator (5 see, 10W). To measure PKC, 10 ul of cell homogenate or purified. PKC isozyme (purchased from Calbiochem) was incubated for 15 min at 37° C. in the presence of 10 μM histones, 4.89 mM CaCl2, 1.2 μg/μl phosphatidyl-L-serine, 0.18 μg/μl 1,2-dioctanoyl-sn-glycerol, 10 mM MgCl2, 20 mM HEPES (pH 7.4), 0.8 mM EDTA, 4 mM EGTA, 4% glycerol, 8 μg/ml aprotinin, 8 μg/ml leupeptin, and 2 mM benzamidine. 0.5 μCi [^γ-32P]ATP was added and ^32P-phosphoprotein formation was measured by adsorption onto phosphocellulose as described previously. Nelson and Alkon, J. Neurochemistry. 1995; 65: 2350-57. For measurements of activation by BR-101 (DCP-LA) and similar compounds, PKC activity was measured in the absence of diacylglycerol and phosphatidyl serine, as described by Kanno et al., and PKC δ, ε, η, and μ were measured in the absence of added EGTA and CaCl2, as described by Kanno et al., J. Lipid Res. 2006; 47: 1146-50. […]
To determine their PKC isozyme specificity, the new compounds were preincubated with purified PKC for five minutes and the PKC activity was measured radiometrically.

[6] = system: PKC; experiment: PKC activity time course in rat H19-7/IGF-IR hippocampal cells; format: cell-based
Protocol: as §1
Protein kinase C assay. Rat hippocampal cells were cultured and scraped in 0.2 ml homogenization buffer (20 triM Tris-HCl, pH 7.4, 50 mM NaF, 1 μg/ml leupeptin, and 0.1 mM PMSF) and homogenized by sonication in a Marsonix micro-probe sonicator (5 see, 10W). To measure PKC, 10 ul of cell homogenate or purified. PKC isozyme (purchased from Calbiochem) was incubated for 15 min at 37° C. in the presence of 10 μM histones, 4.89 mM CaCl2, 1.2 μg/μl phosphatidyl-L-serine, 0.18 μg/μl 1,2-dioctanoyl-sn-glycerol, 10 mM MgCl2, 20 mM HEPES (pH 7.4), 0.8 mM EDTA, 4 mM EGTA, 4% glycerol, 8 μg/ml aprotinin, 8 μg/ml leupeptin, and 2 mM benzamidine. 0.5 μCi [^γ-32P]ATP was added and ^32P-phosphoprotein formation was measured by adsorption onto phosphocellulose as described previously. Nelson and Alkon, J. Neurochemistry. 1995; 65: 2350-57. For measurements of activation by BR-101 (DCP-LA) and similar compounds, PKC activity was measured in the absence of diacylglycerol and phosphatidyl serine, as described by Kanno et al., and PKC δ, ε, η, and μ were measured in the absence of added EGTA and CaCl2, as described by Kanno et al., J. Lipid Res. 2006; 47: 1146-50. Low concentrations of Ca^2+ are used because high Ca^2+ interacts with the PKC phosphatidylserine binding site and prevents activation. For measurements of bryostatin activation, 1,2-diacylglycerol was omitted unless otherwise stated.

[7] = system: PKC; experiment: PKC activity time course in rat hippocampal primary neurons; format: cell-based; details: sustained activation only observed in primary neurons
Protocol: as §1
Sprague Dawley rat brains were plated on 12- or 96-well plates coated with poly-D-lysine (Sigma-Aldrich, St, Louis, Mo.) in B-27 neurobasal medium containing 0.5 mM glutamine and 25 uM glutamate (Invitrogen, Carlsbad, Calif.) and cultured for three days in the medium without glutamate. […]
Protein kinase C assay. […] 0.5 μCi [^γ-32P]ATP was added and ^32P-phosphoprotein formation was measured by adsorption onto phosphocellulose as described previously. […] For measurements of activation by BR-101 (DCP-LA) and similar compounds, PKC activity was measured in the absence of diacylglycerol and phosphatidyl serine, as described by Kanno et al., and PKC δ, ε, η, and μ were measured in the absence of added EGTA and CaCl2, as described by Kanno et al., J. Lipid Res. 2006; 47: 1146-50. […]

## CCC1CC1CC1CC1CC1CC1CC1CC1CC1CC1CC1CC1CCC(=O)OC (centres unmarked) [BR-111, methyl-3-(2-((2-((2-((2-((2-((2-ethylcyclopropyl)methyl)cyclopropyl)methyl)cyclopropyl)methyl)-cyclopropyl)methyl)cyclopropyl)methyl)cyclopropyl)propanoate]
[1]
  reduction of cellular levels of Aβ: 45-63%
[2]
  effect on proliferation: no effect
  effect on cell survival: no effect
[3]
  ECE activity: sustained increase

## CCCCCC1CC1CC1CC1CCCCCCCC(=O)O (centres unmarked) [BR-101, 8-[2-(2-pentyl-cyclopropylmethyl)-cyclopropyl]-octanoic acid]
[4]
  effect on PKCα: not affected
[5]
  effect on PKCγ: activated
[6]
  downregulation of PKC: could not be measured
[7]
  duration of PKC elevation: remained elevated for at least four hours
[2]
  effect on proliferation: no effect
  effect on cell survival: no effect
[3]
  ECE activity: sustained increase
